Assay results from ChEMBL document CHEMBL1201862, “PubChem BioAssay data set” (2004).
Active and inactive are the calls of the source.

Columns and labels:
[1] = target: Voltage-gated inwardly rectifying potassium channel KCNH2 (Homo sapiens, UniProt Q12809); assay: hERG protection from proarrhythmic block, potency, dose response, cell-based, thallium flux (AID 2121); type: ADME
[2] = target: Glyceraldehyde-3-phosphate dehydrogenase (Homo sapiens, UniProt P04406)
Bcl-2-related protein A1 [3] = target: T1, Bcl-2-related protein A1 (Mus musculus, UniProt Q07440); assay: Bfl-1 inhibitors blocking BH3 peptide binding, confirmation, biochemical, TR-FRET, mouse Bfl-1 (AID 621);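 note: TR-FRET binding of GST-Bfl-1 to FITC-labelled Bid peptide via terbium antibody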
T1 sequence (Q07440 whole entry): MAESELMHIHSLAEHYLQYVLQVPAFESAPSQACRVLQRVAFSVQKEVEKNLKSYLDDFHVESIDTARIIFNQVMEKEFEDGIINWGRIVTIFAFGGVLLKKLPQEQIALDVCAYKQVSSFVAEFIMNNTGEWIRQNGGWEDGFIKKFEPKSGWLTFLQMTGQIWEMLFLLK

Bcl-2-related protein A1 [4] = target: T1, Bcl-2-related protein A1; assay: Bfl-1 binding inhibitors, SAR follow-up, biochemical, fluorescence polarization (AID 1070)
[5] = Luminescence Cell-Based Dose Confirmation HTS to Identify Inhibitors of Platelet Dense Granule Release. [Related pubchem assays: 1663 (Primary HTS), 1678 (Summary of Project)]; type: functional
Vero [6] = assay: cells; type: functional; details: Chlorocebus sabaeus
[7] = target: T2, Heat shock factor protein 1 (Mus musculus, UniProt P38532); assay: HSF1 potentiators in luciferase reporter cells, confirmation, cell-based, NIH3T3, luminescence, dose retest (AID 435004); type: functional;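 note: stress induced by proteasome inhibitor MG132 added 30 min after compound; luciferase reporter driven by HSF1 response element in NIH3T3 cells; actives raise luminescence as potentiators of the MG132 stress response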
T2 sequence (P38532 whole entry): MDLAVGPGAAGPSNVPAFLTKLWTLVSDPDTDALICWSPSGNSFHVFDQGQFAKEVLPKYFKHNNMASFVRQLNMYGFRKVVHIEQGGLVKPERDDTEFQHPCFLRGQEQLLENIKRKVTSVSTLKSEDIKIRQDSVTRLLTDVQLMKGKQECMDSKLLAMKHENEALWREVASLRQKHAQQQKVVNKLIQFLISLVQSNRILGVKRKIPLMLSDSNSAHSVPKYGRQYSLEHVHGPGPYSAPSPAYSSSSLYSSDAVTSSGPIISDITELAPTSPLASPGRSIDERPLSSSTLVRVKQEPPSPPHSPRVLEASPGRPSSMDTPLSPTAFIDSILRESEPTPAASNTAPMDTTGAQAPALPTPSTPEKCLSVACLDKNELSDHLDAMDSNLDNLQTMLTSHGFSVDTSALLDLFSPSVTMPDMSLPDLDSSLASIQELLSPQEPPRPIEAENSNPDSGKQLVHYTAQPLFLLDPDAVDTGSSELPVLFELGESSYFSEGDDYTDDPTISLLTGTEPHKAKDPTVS

[8] = target: Luciferin 4-monooxygenase (Photinus pyralis, UniProt P08659); assay: firefly luciferase enzyme inhibitors, dose response, biochemical, luminescence (AID 1891)
[9] = target: T3, Sphingosine 1-phosphate receptor 4 (Homo sapiens, UniProt O95977); assay: Late stage fluorescence dose response cell-based screening assay for antagonists of the Sphingosine 1-Phosphate Receptor 4 (S1P4). [Related pubchem assays: 1524 (Confirmation screen (S1P4 antagonists).), 1510 (Primary screen (S1P4 antagonists).), 1853 (Summary AID (S1P4 antagonists).), 1692 (Dose response screen (S1P4 antagonists).)]; type: functional
T3 sequence (O95977 whole entry): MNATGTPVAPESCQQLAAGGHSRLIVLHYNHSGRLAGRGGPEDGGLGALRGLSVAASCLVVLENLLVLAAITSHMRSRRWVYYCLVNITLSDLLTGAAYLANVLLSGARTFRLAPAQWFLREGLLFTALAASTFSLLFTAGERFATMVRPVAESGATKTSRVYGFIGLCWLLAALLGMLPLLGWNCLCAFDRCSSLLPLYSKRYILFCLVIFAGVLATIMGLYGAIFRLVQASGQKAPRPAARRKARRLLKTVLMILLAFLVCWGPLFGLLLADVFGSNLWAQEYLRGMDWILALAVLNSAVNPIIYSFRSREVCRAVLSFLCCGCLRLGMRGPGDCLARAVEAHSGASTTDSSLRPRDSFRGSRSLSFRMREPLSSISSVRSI

[10] = Luminescent dose response cell-based high throughput screening assay for inhibitors of the Janus kinase 2 mutant JAK2V617F. [Related pubchem assays: 1446 (Primary screen.), 1521 (Confirmation assay.), 1486 (Counter screen.)]; type: functional
[11] = target: Sphingosine 1-phosphate receptor 1 (Homo sapiens, UniProt P21453); type: functional;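 note: Tango beta-arrestin reporter U2OS cells stimulated with S1P near its EC80; inhibitor potency meaning antagonism of receptor activation by the natural agonist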
[12] = microbe, parasite or virus in culture; type: functional; details: Mycobacterium tuberculosis
[13] = target: T3, Sphingosine 1-phosphate receptor 4; assay: Fluorescence dose response cell-based high throughput screening assay for antagonists of the Sphingosine 1-Phosphate Receptor 4 (S1P4). [Related pubchem assays: 1524 (Confirmation in triplicates.), 1510 (Primary screen.)]; type: functional
Vero [14] = assay: cytotoxicity of synthesized analogs in Vero cells, SAR follow-up, cytotoxicity control for West Nile virus antiviral project, cell-based, set II (AID 2402); type: functional; details: Chlorocebus sabaeus
Protein RecA = target: T4, Protein RecA (Mycobacterium tuberculosis, UniProt P9WHJ3); assay: Fluorescence Cell-Free Homogeneous Dose Retest to Identify Inhibitors of RecA-Intein Splicing Activity. [Related pubchem assays (depositor defined):AID2097, AID2223, AID489010, AID492950]; type: functional
T4 sequence (P9WHJ3 whole entry): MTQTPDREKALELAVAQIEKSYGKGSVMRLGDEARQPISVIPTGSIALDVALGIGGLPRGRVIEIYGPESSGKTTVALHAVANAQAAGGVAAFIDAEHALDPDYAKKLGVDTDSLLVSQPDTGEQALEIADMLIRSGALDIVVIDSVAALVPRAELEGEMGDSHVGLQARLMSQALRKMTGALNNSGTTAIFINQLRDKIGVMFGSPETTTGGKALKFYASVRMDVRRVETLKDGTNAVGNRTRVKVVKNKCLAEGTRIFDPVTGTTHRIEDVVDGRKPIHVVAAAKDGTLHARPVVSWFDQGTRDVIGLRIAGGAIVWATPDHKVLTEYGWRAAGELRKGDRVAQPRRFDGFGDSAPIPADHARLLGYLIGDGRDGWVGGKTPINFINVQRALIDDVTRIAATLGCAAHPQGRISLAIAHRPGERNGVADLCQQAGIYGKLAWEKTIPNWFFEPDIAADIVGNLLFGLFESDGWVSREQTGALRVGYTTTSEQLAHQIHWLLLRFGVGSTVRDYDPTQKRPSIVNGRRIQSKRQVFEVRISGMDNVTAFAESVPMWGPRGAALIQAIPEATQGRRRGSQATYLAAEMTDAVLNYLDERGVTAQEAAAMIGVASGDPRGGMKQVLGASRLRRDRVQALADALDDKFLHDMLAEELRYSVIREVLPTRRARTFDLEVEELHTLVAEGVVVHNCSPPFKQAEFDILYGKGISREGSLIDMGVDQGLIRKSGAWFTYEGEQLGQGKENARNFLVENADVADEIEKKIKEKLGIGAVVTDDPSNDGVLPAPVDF

14-3-3 protein gamma = 14-3-3 protein gamma (Homo sapiens, UniProt P61981); assay: modulators of 14-3-3 gamma client binding – dose response (AID 711); type: functional
[15] = target: T5, Replicative DNA helicase DnaB (Mycobacterium tuberculosis, UniProt P9WMR3); assay: DnaB intein splicing inhibitors, dose response, biochemical, cell-free fluorescence (AID 449749); type: functional
T5 sequence (P9WMR3 whole entry): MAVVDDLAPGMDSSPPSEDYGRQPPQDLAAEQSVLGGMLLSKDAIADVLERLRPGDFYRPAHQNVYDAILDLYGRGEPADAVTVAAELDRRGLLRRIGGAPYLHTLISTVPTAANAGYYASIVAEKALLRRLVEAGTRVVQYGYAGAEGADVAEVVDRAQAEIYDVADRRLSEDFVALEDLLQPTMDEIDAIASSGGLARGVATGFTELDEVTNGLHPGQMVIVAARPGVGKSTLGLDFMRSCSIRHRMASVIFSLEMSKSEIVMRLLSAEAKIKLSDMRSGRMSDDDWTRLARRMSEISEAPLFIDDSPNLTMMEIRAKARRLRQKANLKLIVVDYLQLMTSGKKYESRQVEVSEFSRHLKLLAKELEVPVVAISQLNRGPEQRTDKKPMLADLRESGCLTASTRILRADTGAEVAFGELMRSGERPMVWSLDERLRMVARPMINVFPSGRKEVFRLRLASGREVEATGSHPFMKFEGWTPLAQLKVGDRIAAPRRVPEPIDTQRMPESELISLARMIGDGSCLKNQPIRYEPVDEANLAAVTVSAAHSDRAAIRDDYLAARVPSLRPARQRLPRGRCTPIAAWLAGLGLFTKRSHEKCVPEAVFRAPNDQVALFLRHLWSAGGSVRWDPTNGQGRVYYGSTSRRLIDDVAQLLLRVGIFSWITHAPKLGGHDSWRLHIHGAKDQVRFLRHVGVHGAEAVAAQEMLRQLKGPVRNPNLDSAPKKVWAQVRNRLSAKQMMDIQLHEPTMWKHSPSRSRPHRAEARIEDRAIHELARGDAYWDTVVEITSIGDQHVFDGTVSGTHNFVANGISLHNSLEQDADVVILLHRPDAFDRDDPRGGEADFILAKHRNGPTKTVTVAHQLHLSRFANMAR

Bcl-2-related protein A1 [16] = target: T1, Bcl-2-related protein A1; assay: Bfl-1 inhibitors, primary screen, biochemical, fluorescence polarization, FITC-Bid, mouse (AID 432)
Cytochrome P450 2C19 = Cytochrome P450 2C19 (Homo sapiens, UniProt P33261); assay: Cytochrome panel assay with activity outcomes. Panel member name: p450-cyp2c19 Compounds with AC50 equal or less than 10 uM are considered active; type: functional; details: read-out: AC50
Danio rerio = assay: In Vivo Angiogenesis Dose-Response Confirmation. [Related pubchem assays: 732 (Assay preceding this confirmatory assay.)]; type: functional, organism-based
Cytochrome P450 2C9 [17] = target: T6, Cytochrome P450 2C9 (Homo sapiens, UniProt P11712); details: Potency
Cytochrome P450 2C9 [18] = target: T6, Cytochrome P450 2C9
Vero [19] = assay: host cell cytotoxicity of antiviral hits, dose response, cytotoxicity control for West Nile virus antiviral project, secondary assay (AID 1650); type: functional; details: Chlorocebus sabaeus
[20] = inhibitors of firefly luciferase expression or activity, dose response, H4 neuroglioma cells, luminescence (AID 1990); type: functional, cell-based
Vero [21] = assay: cells; type: functional, cell-based; details: Chlorocebus sabaeus
Cytochrome P450 1A2 = target: T7, Cytochrome P450 1A2 (Homo sapiens, UniProt P05177);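 note: PubChem cytochrome P450 panel assay, CYP1A2 panel member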
T7 sequence (P05177 whole entry): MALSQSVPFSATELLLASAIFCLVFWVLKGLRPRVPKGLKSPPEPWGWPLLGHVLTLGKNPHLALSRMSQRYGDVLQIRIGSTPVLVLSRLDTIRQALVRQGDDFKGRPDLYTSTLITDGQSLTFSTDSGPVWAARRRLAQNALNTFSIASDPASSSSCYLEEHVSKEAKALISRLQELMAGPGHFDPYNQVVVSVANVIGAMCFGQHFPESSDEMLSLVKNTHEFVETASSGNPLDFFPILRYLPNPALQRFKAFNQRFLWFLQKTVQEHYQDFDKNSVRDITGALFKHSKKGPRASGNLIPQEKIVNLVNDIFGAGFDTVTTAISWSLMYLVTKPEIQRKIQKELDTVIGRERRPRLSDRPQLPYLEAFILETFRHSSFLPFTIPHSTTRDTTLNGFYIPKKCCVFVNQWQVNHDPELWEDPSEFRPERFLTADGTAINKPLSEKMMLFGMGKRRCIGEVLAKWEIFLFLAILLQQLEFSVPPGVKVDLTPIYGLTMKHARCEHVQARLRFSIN

[22] = inhibitors of SNCA 5'UTR-driven reporter translation, confirmation, H4 neuroglioma cells, luminescence (AID 1988); type: functional, cell-based
[23] = Luminescence Cell-Based Dose Response HTS to Identify Inhibitors of 5'UTR Stem-Loop Driven Prion Protein mRNA Translation in H4 Neuroglioblastoma Cells. [Related pubchem assays: 1827 (Project Summary), 1813 (Primary HTS)]; type: functional
[24] = inhibitors of intracellular T. cruzi replication, confirmation, NIH3T3 host cells, beta-gal luminescence (AID 2044); type: functional, cell-based;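 note: intracellular parasites grown in NIH/3T3 mouse fibroblasts as host cells; luminescent beta-galactosidase reporter signal from transgenic T. cruzi replicating inside host cells; inhibitors lower the luminescence signal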
[25] = cytotoxicity toward NIH3T3 fibroblasts, dose response, counter-screen, cell-based, ATP luminescence, mouse fibroblasts (AID 2010); type: functional;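 note: cells exposed to compound for about 90 hours before reading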

T6 sequence (P11712 whole entry): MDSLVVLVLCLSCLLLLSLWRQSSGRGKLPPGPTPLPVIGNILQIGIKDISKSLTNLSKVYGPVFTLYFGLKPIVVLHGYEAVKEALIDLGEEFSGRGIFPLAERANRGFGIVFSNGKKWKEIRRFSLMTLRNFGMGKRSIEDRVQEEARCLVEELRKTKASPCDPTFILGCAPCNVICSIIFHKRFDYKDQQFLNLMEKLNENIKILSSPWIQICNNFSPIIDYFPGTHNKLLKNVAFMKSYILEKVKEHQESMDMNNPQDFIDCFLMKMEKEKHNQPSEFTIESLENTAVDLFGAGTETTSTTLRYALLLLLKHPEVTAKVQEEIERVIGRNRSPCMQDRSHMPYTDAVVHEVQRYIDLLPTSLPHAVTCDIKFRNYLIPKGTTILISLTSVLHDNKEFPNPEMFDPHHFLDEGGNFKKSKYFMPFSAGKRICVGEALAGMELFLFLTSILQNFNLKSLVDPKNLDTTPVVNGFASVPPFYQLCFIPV
Sequence of Cytochrome P450 2C19 (P33261 whole entry): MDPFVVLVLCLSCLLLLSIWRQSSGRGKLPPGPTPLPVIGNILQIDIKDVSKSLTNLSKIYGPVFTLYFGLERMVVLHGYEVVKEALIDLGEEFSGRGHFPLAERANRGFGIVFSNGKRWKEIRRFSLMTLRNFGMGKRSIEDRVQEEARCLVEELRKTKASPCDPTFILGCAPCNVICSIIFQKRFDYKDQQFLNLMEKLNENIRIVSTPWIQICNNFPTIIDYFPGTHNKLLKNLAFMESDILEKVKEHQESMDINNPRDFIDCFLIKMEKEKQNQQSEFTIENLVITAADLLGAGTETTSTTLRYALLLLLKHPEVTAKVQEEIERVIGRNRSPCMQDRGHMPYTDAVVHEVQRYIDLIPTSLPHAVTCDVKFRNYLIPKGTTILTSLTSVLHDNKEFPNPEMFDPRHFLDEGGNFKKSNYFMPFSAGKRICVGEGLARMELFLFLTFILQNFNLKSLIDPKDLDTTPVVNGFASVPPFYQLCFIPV
Sequence of Voltage-gated inwardly rectifying potassium channel KCNH2 (Q12809 whole entry): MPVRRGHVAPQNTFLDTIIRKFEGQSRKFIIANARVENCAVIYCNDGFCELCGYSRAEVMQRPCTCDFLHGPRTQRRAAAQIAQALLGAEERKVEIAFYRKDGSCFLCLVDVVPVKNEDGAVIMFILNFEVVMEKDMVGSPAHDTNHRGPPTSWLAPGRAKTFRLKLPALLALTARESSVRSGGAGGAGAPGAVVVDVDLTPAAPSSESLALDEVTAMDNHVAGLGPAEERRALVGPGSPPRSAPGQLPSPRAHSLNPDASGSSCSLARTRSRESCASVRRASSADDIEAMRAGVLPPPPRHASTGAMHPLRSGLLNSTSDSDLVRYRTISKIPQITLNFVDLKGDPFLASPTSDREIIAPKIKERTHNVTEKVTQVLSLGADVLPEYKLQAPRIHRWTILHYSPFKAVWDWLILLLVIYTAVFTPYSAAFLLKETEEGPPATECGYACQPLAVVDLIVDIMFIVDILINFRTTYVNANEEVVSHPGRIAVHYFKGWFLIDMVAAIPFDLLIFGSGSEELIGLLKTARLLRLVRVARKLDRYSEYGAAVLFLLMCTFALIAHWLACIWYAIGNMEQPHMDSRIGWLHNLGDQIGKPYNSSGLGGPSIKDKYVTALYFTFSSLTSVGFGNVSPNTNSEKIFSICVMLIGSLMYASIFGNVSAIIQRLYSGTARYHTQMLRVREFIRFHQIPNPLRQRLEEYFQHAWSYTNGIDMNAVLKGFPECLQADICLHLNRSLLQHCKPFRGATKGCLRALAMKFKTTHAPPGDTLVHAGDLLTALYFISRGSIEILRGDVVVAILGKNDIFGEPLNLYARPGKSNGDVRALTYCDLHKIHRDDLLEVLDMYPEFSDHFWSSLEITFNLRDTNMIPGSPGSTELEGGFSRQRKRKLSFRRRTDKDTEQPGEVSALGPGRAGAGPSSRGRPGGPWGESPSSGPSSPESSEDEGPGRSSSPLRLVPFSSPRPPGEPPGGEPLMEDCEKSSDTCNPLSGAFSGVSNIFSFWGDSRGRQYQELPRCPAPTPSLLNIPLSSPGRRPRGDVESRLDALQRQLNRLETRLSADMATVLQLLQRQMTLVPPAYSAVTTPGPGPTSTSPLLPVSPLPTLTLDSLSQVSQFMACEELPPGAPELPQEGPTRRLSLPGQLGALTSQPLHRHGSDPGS
Sequence of Sphingosine 1-phosphate receptor 1 (P21453 whole entry): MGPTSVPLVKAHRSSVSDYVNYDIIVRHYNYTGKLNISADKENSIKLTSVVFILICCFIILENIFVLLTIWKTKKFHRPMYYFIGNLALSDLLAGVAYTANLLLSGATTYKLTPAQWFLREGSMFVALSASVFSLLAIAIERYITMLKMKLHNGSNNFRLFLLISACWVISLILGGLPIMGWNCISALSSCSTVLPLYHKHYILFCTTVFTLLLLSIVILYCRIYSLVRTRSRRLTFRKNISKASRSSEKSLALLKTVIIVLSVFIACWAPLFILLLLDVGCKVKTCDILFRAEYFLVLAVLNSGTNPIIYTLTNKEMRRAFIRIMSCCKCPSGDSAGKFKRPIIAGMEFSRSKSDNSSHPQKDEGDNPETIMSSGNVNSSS
Sequence of Glyceraldehyde-3-phosphate dehydrogenase (P04406 whole entry): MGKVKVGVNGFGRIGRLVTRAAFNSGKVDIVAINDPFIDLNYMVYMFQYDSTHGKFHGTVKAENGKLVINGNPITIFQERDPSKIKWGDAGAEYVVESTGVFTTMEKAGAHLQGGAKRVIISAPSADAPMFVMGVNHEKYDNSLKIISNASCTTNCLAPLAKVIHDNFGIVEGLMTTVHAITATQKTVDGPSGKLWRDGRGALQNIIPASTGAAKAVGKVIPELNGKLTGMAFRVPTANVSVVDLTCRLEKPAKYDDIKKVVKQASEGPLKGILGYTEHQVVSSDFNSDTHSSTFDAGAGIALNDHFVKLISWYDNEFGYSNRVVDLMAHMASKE
Sequence of 14-3-3 protein gamma (P61981 whole entry): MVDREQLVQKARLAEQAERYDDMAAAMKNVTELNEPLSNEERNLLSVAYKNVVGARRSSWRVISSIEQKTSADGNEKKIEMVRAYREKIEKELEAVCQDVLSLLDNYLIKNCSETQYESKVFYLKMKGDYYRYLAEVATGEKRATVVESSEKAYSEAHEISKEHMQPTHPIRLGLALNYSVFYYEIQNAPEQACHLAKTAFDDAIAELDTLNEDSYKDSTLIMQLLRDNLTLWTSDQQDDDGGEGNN
Sequence of Luciferin 4-monooxygenase (P08659 whole entry): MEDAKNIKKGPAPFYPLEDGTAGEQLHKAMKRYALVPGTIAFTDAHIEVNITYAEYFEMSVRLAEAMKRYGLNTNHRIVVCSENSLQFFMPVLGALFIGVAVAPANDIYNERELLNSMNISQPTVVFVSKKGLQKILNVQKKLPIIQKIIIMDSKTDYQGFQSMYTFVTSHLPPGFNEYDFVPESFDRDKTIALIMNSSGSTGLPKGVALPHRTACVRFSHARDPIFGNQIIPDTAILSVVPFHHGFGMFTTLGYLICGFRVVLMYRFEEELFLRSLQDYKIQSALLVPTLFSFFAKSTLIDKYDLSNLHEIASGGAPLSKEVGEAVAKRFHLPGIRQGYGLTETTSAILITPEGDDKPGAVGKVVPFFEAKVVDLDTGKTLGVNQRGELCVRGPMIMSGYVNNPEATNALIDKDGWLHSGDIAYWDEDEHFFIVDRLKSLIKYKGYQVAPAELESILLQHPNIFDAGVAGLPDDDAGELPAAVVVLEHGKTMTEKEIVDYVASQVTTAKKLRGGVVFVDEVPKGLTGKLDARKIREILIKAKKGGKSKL

C/C(Nc1cccc(F)c1)=C(/C#N)C(N)=O
EC50 [1]: 0.88 µM (active)

CS(=O)(=O)c1nc(-c2ccc3ccccc3c2)cc(C(F)(F)F)n1
IC50 [2]: > 100 µM (not active) | IC50 (Bcl-2-related protein A1 [3]): > 100 µM (not active) | IC50 (Bcl-2-related protein A1 [4]): > 100 µM (not active)

O=C(C=C=Nc1ccccc1)C(=O)N=C=Cc1ccccc1
EC50 [5]: 47 µM (active) | CC50 (Vero [6]): 18.9 µM (active) | EC50 [7]: 5.61 µM (inconclusive) | EC50 [8]: > 112 µM (not active) | IC50 [9]: 4.55 µM (not active) | IC50 [10]: 1.91 µM (active) | IC50 [11]: > 49.8 µM (not active) | CC50 [12]: 16.6 µM (active) | IC50 [13]: 0.972 µM (active)

OC1c2c(F)cccc2N=C2CCCCCN21 (configuration not stated)
CC50 (Vero [14]): > 200 µM (active)

NC(=O)c1c(-c2cccs2)csc1N
EC50 (Protein RecA): 1.02 µM (active) | IC50 (14-3-3 protein gamma): > 50 µM (not active) | AC50 [15]: > 380 µM (inactive)

COC(=O)Cn1c2c(c3cc(C)ccc31)CCCC2
IC50 (Bcl-2-related protein A1 [3]): > 100 µM (not active) | IC50 (Bcl-2-related protein A1 [16]): > 100 µM (not active)

O=Nc1c(-c2c(O)[nH]c3ccccc23)[nH]c2ccccc12 [INDIRUBIN-3-MONOXIME]
AC50 (Cytochrome P450 2C19): 39.8 µM (inconclusive) | IC50 (Danio rerio): 0.31 µM (active) | AC50 (Cytochrome P450 2C9 [17]): 12.6 µM (inconclusive) | AC50 (Cytochrome P450 2C9 [18]): 39.8 µM (inconclusive)

COc1c(C)c2c(c(O)c1C/C=C(\C)CCC(=O)O)C(=O)OC2 [MYCOPHENOLIC ACID]
CC50 (Vero [19]): 4.61 µM (active) | EC50 [20]: 10.2 µM (active) | CC50 (Vero [6]): 9.68 µM (active) | IC50 (Vero [21]): < 0.05 µM (active) | AC50 (Cytochrome P450 1A2): 15.8 µM (inconclusive) | EC50 [22]: 8.2 µM (active) | EC50 [23]: 0.116 µM (active) | EC50 [24]: 1.64 µM (active) | EC50 [25]: 10.9 µM (active)
